Reference: US20240239729A1, “Functionalization of Lightly Branched Olefin Oligomers” (priority 2021, published 2024)

Assays:
Assay type in all cases: physicochemical
[1] = Solubility in water at 25° C. by visual observation; conditions: 2-3 hours magnetic stirring
Experimental: Solubility measurements were conducted in water at 25° C. Solubility was determined through visual observation after 2-3 hours of magnetic stirring of surfactant solutions having variable concentrations.

[2] = Critical micelle concentration in water (Kruss K100 tensiometer)
Experimental: Critical micelle concentrations in water were measured using an A Kruss Laboratory K100 tensiometer. CMC values were determined using the K100 instrument's fully automated measurement method, as described further in the K100 instrument's operating manual.

[3] = Calcium tolerance (hard water tolerance), surfactant remaining in filtrate by HPLC-ELSD; conditions: 25° C.; 450 ppm surfactant, 420 ppm cations (3:1 Ca2+:Mg2+), stood overnight, 0.22 μm filtrate
Experimental: Calcium tolerance was measured at 25° C. using the following procedure. A surfactant solution containing 450 ppm of alcohol sulfate surfactant and 420 ppm cations (3:1 Ca^2+:Mg^2+) was prepared and allowed to stand overnight. Crystals formed during this time. The supernatant liquid was removed and passed through a 0.22 μm filter to provide a filtrate. The filtrate was then analyzed for surfactant residue. Analysis of the surfactant and salt residue was performed using an Agilent 1100 HPLC combined with SEDEX 75 evaporative light scattering detector (ELSD) using the run conditions specified in Table 4 below. Peak height was utilized to analyze surfactant concentration. Some samples were repeated in triplicate. Calcium tolerance results are specified in Table 5 below.

Row | Structure (SMILES) | Solubility at 25° C., (Wt. %) [1] | CMC [2] | Calcium tolerance (ppm surfactant remaining) [3]
1 | CCCCCCCCCCCCCOS(=O)(=O)[O-].[Na+] [Entry 5, Sodium n-Tridecyl Sulfate] | <0.5% Wt. % | 0.001 g/g | 11.2 ppm
2 | CCCC(C)CCCC(C)CCCOS(=O)(=O)O (stereo not shown) [Entry 8, 4,8-dimethylundecan-1-sulfate] | – | 0.00129 g/g | –
